The subject of one data set is MCF-7 cells. Kind of data set: Effect on doxorubicin induced cytotoxicity (MTT). Particulars: for Percentage of viable cells MCF-7 (average ± SD): 10 μM DOX in combination with 100 μM curcumin derivative, 48 hr; for viability at 100 µM: Homo sapiens, MCF7, 48 h, read-out: Percentage of viable cells MCF-7 (average ± SD). The protocol:
The effects of curcumin conjugates on doxorubicin induced cytotoxicity were evaluated. In order to further examine whether curcumin derivatives can enhance conventional chemotherapeutic agents, MCF-7 cells were treated with 100 μM curcumin derivatives alone or in combination with 10 μM doxorubicin (DOX) for 48 hr. Control cultures received only medium, vehicle (DMSO), or vehicle+DOX. The percentage of viable cells was determined by MTT assay according to equation (5): […]

Data set [1] has as its system lipopolysaccharide-stimulated peritoneal macrophages. Kind of data set: Production of nitric oxide by lipopolysaccharide-stimulated peritoneal macrophages (Greiss reagent). The class given is cell-based. The arrangement: Potency (%): % inhibition of nitric oxide production relative to lipopolysaccharide-stimulated macrophages: concentration or dose not given beside the values. Particulars: LPS-stimulated peritoneal macrophages; for Nitric oxide (nitrite) concentration, μM (average ± SD): 24 h, nitrite by Greiss reagent. The method, boiled down: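 Macrophages in nitrite-free medium with 0.1% BSA were stimulated with LPS at 0.5–10 ng/ml, some wells also receiving epinephrine, norepinephrine or dopamine at […], for 24 h at 37° C. Nitrite in supernatants was measured with Greiss reagent, 15 min at room temperature, absorbance 532 nm.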

For data set [2], the system named is PHA-stimulated splenocytes. Kind of data set: Proliferative response of PHA-stimulated splenocytes (MTT assay). The class given is cell-based. The settings on record: PHA 5 μg/ml, 72 hr; compounds at 5 μM (method says 10 μM); ratio of O.D. versus vehicle control. Summed up:
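Freshly prepared splenocytes (1×10^6 cells/well) were cultured for 72 h at 37° C with compound at 10 μM final, with or without PHA (5 μg/ml). Viability was read by MTT (4 h), with absorbance at 570 nm against 690 nm reference. Stimulation index is the OD ratio of treated versus vehicle cultures.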

In data set [3] the test system is HepG2 (hepatocellular) carcinoma cell line. Kind of data set: Anti-tumor properties, MTT. The settings on record: Homo sapiens; HepG2, 100 μM, 72 h; read-out: Percentage growth of tumor cell lines treated with the tested compounds (±SD). It counts as cell-based. The protocol:
(§1) Anti-tumor properties of curcumin conjugates were evaluated. The synthesized curcumin-amino acid conjugates and curcumin itself were screened for their antitumor properties against human tumor cell lines utilizing HepG2 (hepatocellular), MCF7 (breast), and HCT116 (colon) carcinoma cell lines by the standard mitochondrial dependent reduction of yellow MTT [3-(4,5-dimethylthiazol-2-yl)-2,5-diphenyl-tetrazolium bromide] to purple formazan technique. Cancer cells were obtained from the Egyptian Company for Production of Vaccines, Sera and Drugs (VACSERA), Cairo, Egypt. Media, chemicals and supplies for the bio-assay were obtained from Biowest, Gibco and Lonza Companies. Cells were suspended in RPMI-1640 medium for HepG2, DMEMF12 for MCF-7, and DMEM for HCT116 in addition to 1% antibiotic-antimycotic mixture (10 […] potassium penicillin, 10 […] streptomycin sulfate and […] amphotericin B), 10% fetal bovine serum and 1% L-glutamine at 37° C., under 5% CO2 and 95% humidity. Cells were seeded at a concentration of 10×10^3 cells per well in fresh complete growth medium in 96-well tissue culture microtiter plates for 24 h. Media was aspirated, 180 μL fresh medium (without serum) were added and cells were incubated with different concentrations of sample to give a final concentration of 100 μM. 0.5% DMSO was used as a negative control and doxorubicin was used as a positive control (standard reference). Triplicate wells were prepared for each individual tested compound/dose. After 72 h of incubation, the medium was aspirated, 40 μL MTT salt (2.5 mg ml^1) were added to each well and incubated for an additional 4 h at 37° C. To stop the reaction and dissolve the formed crystals, 200 μL of 10% sodium dodecyl sulfate (SDS) in deionized water were added to each well and incubated overnight at 37° C. The absorbance was then measured at 595 nm with a reference wavelength of 620 nm. Data were collected as mean values for experiments performed in triplicates for each compound which had been measured by MTT assay.
(§2) The percentage of cell survival was calculated according to equation (4): […]
(§3) The IC50 was determined using Graph-Pad PRISM version-5 software. Statistical calculations for determination of the mean and standard deviation (SD) values were determined by SPSS 16 software.

Data set [4] relates to HCT116 (colon) carcinoma cell line. Kind of data set: Anti-tumor properties, MTT. The class given is cell-based. The settings on record: Homo sapiens, HCT-116; HCT116, 100 μM, 72 h; read-out: Percentage growth of tumor cell lines treated with the tested compounds (±SD). The protocol:
as §1, §2, §3

Data set [5] concerns MCF7 (breast) carcinoma cell line. Kind of data set: Anti-tumor properties, MTT. The class given is cell-based. The settings on record: Homo sapiens; MCF7, 100 μM, 72 h; read-out: Percentage growth of tumor cell lines treated with the tested compounds (±SD). The method, then:
as §1, §2, §3

The test system of data set [6] is Salmonella typhi ATCC19430. Kind of data set: Antimicrobial MIC, agar dilution. The class given is cell-based. The settings on record: Salmonella enterica, read-out: Minimum inhibitory concentration (MIC).
For data set [7], the system named is Pseudomonas aeruginosa ATCC27853. Kind of data set: Antimicrobial MIC, agar dilution.
Data set [8] has as its system Candida albicans (local isolate). Kind of data set: Antimicrobial MIC, agar dilution. Particulars: Candida albicans, read-out: Minimum inhibitory concentration (MIC).
The test system of data set [9] is Staphylococcus aureus ATCC25923. Kind of data set: Antimicrobial MIC, agar dilution.
The subject of data set [10] is Streptococcus pyogenes ATCC19615. Kind of data set: Antimicrobial MIC, agar dilution.
[11] abbreviates: ATCC27853, 18 h, read-out: Minimum inhibitory concentration (MIC).
Setting [12] is: ATCC27853, read-out: Minimum inhibitory concentration (MIC).
Setting [13] is: ATCC25923, 18 h, read-out: Minimum inhibitory concentration (MIC).
Where [14] appears, read: ATCC25923, read-out: Minimum inhibitory concentration (MIC).
[15] abbreviates: ATCC19615, 18 h, read-out: Minimum inhibitory concentration (MIC).
[16] abbreviates: ATCC19615, read-out: Minimum inhibitory concentration (MIC).

We go through four molecules from US10660967B2, “Curcumin conjugates and methods of use thereof” (priority 2016, dated 2020).

Like-named read-outs stand apart in the source and are kept apart here.

As for `COc1cc(/C=C/C(=O)CC(=O)/C=C/c2ccc(OC(=O)[C@@H](NC(=O)OCc3ccccc3)C(C)C)c(OC)c2)ccc1OC(=O)[C@@H](NC(=O)OCc1ccccc1)C(C)C` [Cbz-Val-Cur, ((1E,6E)-3,5-dioxohepta-1,6-diene-1,7-diyl)bis(2-methoxy-4,1-phenylene) (2S,2′S)-bis(2-(((benzyloxy)carbonyl)amino)-3-methylbutanoate)], the “Percentage of viable cells MCF-7 (average ± SD)” value (“Percentage … (average ± SD)” below) with MCF-7 cells was 49.68 ± 1.46. The viability at 100 µM with MCF-7 cells is 99.2 ± 2.15%. Further, the “Potency (%): % inhibition of nitric oxide production relative to lipopolysaccharide-stimulated macrophages” value in [1] came to 5.68%. For the same molecule, in data set [1], the “Nitric oxide (nitrite) concentration, μM (average ± SD)” value (from here on “Nitric oxide … (average ± SD)”) turned out to be 25.76 ± 0.99 µM. Moreover, in data set [2], the “Stimulation Index (average ± SD)” value came to 2.87 ± 0.11. The activity at 100 µM came out at 92.4 ± 2.8% in data set [3], 112 ± 7.9% in data set [4] and 85% in data set [5]. The MIC in [6] (18 h) stood at 0.125 µg/mL; in [6], 0.15 µM; in data set [7] (setting [11]), 0.25 µg/mL; in data set [7] (setting [12]), 0.299 µM; in data set [8] (18 h), 1 µg/mL; in data set [8], 1.2 µM. Further, the MIC was 0.125 µg/mL in [9] (setting [13]), 0.15 µM in [9] (setting [14]), 0.5 µg/mL in data set [10] (setting [15]) and 0.599 µM in data set [10] (setting [16]).
Regarding `COc1cc(/C=C/C(=O)CC(=O)/C=C/c2ccc(OC(=O)[C@H](C)NC(=O)OCc3ccccc3)c(OC)c2)ccc1OC(=O)[C@H](C)NC(=O)OCc1ccccc1` [Cbz-Ala-Cur, ((1E,6E)-3,5-dioxohepta-1,6-diene-1,7-diyl)bis(2-methoxy-4,1-phenylene) (2S,2′S)-bis(2-(((benzyloxy)carbonyl)amino)propanoate)], in the data set on MCF-7 cells, the “Percentage … (average ± SD)” value was found to be 46.65 ± 2.06. Further, in the data set on MCF-7 cells, the viability at 100 µM was determined as 99.5 ± 4.47%. Moreover, in [1], the “Potency (%): % inhibition of nitric oxide production relative to lipopolysaccharide-stimulated macrophages” value is reported as 8.86%. Further, the “Nitric oxide … (average ± SD)” value in data set [1] was determined as 24.89 ± 1.65 µM. The “Stimulation Index (average ± SD)” value in data set [2] is on record as 2.70 ± 0.25. The values for the activity at 100 µM in data set [3], in [4] and in data set [5] were 82.3 ± 4.2%, 86.6 ± 6.2% and 70 ± 4.1%, respectively. The MIC in data set [6] (18 h) amounted to 0.5 µg/mL; in data set [6] it was 0.642 µM; in [7] (setting [11]), 2 µg/mL; in data set [7] (setting [12]) it was 2.57 µM; in data set [8] (18 h), 2 µg/mL; in data set [8], 2.57 µM. Besides, the MIC in data set [9] (setting [13]) came out at 0.25 µg/mL; in data set [9] (setting [14]) it was 0.321 µM; in data set [10] (setting [15]), 0.125 µg/mL; in [10] (setting [16]) it was 0.161 µM.
As to `COc1cc(/C=C/C(=O)CC(=O)/C=C/c2ccc(OC(=O)[C@H](Cc3ccccc3)NC(=O)OCC3c4ccccc4-c4ccccc43)c(OC)c2)ccc1OC(=O)[C@H](Cc1ccccc1)NC(=O)OCC1c2ccccc2-c2ccccc21` [Fmoc-Phe-Cur, ((1E,6E)-3,5-dioxohepta-1,6-diene-1,7-diyl)bis(2-methoxy-4,1-phenylene) (2S,2′S)-bis(2-((((9H-fluoren-9-yl)methoxy)carbonyl)amino)-3-phenylpropanoate)], the “Percentage … (average ± SD)” value in the data set on MCF-7 cells was 42.49 ± 2.71. Besides, in the data set on MCF-7 cells, the viability at 100 µM worked out at 98.3 ± 2.21%. Moreover, the “Potency (%): % inhibition of nitric oxide production relative to lipopolysaccharide-stimulated macrophages” value in data set [1] came out at 31.01%. Also, the “Nitric oxide … (average ± SD)” value in data set [1] was found to be 18.84 ± 0.69 µM. Besides, in data set [2], the “Stimulation Index (average ± SD)” value worked out at 1.78 ± 0.10. The activity at 100 µM in [3] was determined as 108 ± 3.6%; in data set [4], 110 ± 7.3%; in [5], 84.7 ± 3.6%. Further, the MIC in data set [6] (18 h) worked out at 0.25 µg/mL; in data set [6], 0.226 µM; in data set [7] (setting [11]), 2 µg/mL; in [7] (setting [12]) it was 1.81 µM; in data set [8] (18 h), 0.5 µg/mL; in [8], 0.452 µM. The MIC in [9] (setting [13]) amounted to 0.25 µg/mL; in data set [9] (setting [14]), 0.226 µM; in [10] (setting [15]) it was 0.125 µg/mL; in data set [10] (setting [16]) it was 0.113 µM.
As for `COc1cc(/C=C/C(=O)CC(=O)/C=C/c2ccc(OC(=O)[C@H](CC(C)C)NC(=O)OCc3ccccc3)c(OC)c2)ccc1OC(=O)[C@H](CC(C)C)NC(=O)OCc1ccccc1` [Cbz-Leu-Cur, ((1E,6E)-3,5-dioxohepta-1,6-diene-1,7-diyl)bis(2-methoxy-4,1-phenylene) (2S,2′S)-bis(2-(((benzyloxy)carbonyl)amino)-4-methylpentanoate)], the “Percentage … (average ± SD)” value in the data set on MCF-7 cells is 50.17 ± 4.94. Also, in the data set on MCF-7 cells, the viability at 100 µM stood at 98.2 ± 3.44%. Further, the “Potency (%): % inhibition of nitric oxide production relative to lipopolysaccharide-stimulated macrophages” value in [1] is given as 4.57%. Also, in [1], the “Nitric oxide … (average ± SD)” value is 26.06 ± 0.65 µM. Further, in data set [2], the “Stimulation Index (average ± SD)” value is recorded as 2.83 ± 0.17. The activity at 100 µM in data set [3] worked out at 85.1 ± 5.7%; in [4], 94.7 ± 5.8%; in data set [5], 85.7 ± 1.2%. In addition, the MIC in data set [6] (18 h) is 0.25 µg/mL; in data set [6] it was 0.29 µM; in data set [7] (setting [11]), 0.125 µg/mL; in data set [7] (setting [12]) it was 0.145 µM; in [8] (18 h), 0.5 µg/mL; in [8], 0.579 µM. Also, the MIC in data set [9] (setting [13]) is 0.125 µg/mL; in [9] (setting [14]) it was 0.145 µM; in data set [10] (setting [15]) it was 0.125 µg/mL; in [10] (setting [16]) it was 0.145 µM.
